# Measurements from US10093654B2, “Therapeutically active compounds and their methods of use” (Agios Pharmaceuticals, Inc., priority 2013, dated 2018).
# “And” between values parts separate entries of the source, which are not always exact repeats. Equal values may be shown once.
# Assays:
# human CYP3A4 = experiment: CYP3A4 induction; format: in vitro ADME
# CYP1A2 [1] = experiment: CYP1A2 induction; format: in vitro ADME, human
# CYP2B6 = CYP2B6 induction; format: in vitro ADME, human
# CYP2C8 = CYP2C8 (Homo sapiens, UniProt P10632); experiment: Direct inhibition of CYP2C8; format: in vitro ADME
# CYP2C9 = CYP2C9 (Homo sapiens, UniProt P11712); experiment: Direct inhibition of CYP2C9; format: in vitro ADME
# CYP1A2 [2] = target: CYP1A2 (Homo sapiens, UniProt P05177); experiment: Direct inhibition of CYP1A2; format: in vitro ADME
# CYP enzymes = experiment: Time-dependent or metabolism-dependent inhibition of CYP enzymes; format: in vitro ADME, human
# [3] = test system: TF-1/IDH2 (R140Q) mutant cells; experiment: 2-HG levels in TF-1/IDH2 (R140Q) mutant cells; format: cell-based
# TF-1 IDH2 (R140Q) cells = experiment: GM-CSF-independent growth in TF-1 IDH2 (R140Q) cells; format: cell-based; settings: 1 μM for 7 days
# [4] = test system: IDH2 (R140Q) in TF-1 cells; experiment: Histone hypermethylation, Western blot, TF-1 IDH2 (R140Q) cells; format: cell-based
# [5] = test system: TF-1 IDH2 (R140Q) mutant cells; experiment: Differentiation block, EPO-induced expression in TF-1 IDH2 (R140Q) mutant cells; format: cell-based; settings: when 2-HG levels fall below 1 mM
# [6] = test system: primary human IDH2 (R140Q) mutant AML cells; experiment: Ex vivo treatment of primary human AML blast cells; format: cell-based; settings: for percentage of blast cells: from 90%, 500, 1000, 5000 nM
# Excerpt: Cells are counted at Days 3, 6, 9, and 13 and normalized to DMSO control.
# U87MG IDH2 (R140Q) tumor = experiment: PK/PD study in mouse xenograft model, tumor 2-HG; format: in vivo, female nude mice
# Protocol: Pharmacokinetic/pharmacodynamic (PK/PD) studies are conducted in female nude mice inoculated subcutaneously with U87MG IDH2 (R140Q) tumor.
# [7] = test system: AMM7577-P2 (HuKemia® model); experiment: Survival in mutant positive AML mouse model
# Excerpt: 40 NOD/SCID mice are engrafted on Day 1 with 2*10^6/mouse of AMM7577-P2 (HuKemia® model, Crown BioScience Inc.) frozen cells that may be thawed out from liquid N2. Peripheral blood samples are collected weekly for FACS analysis of human leukemia cells starting at Week 3 post-cell inoculation. Plasma and urine samples are collected weekly starting at Week 3 until the termination point. When the tumor growth is about 10% of human CD45+ cell in peripheral blood samples, the engrafted mice may be randomly allocated into 5 groups using the treatment schedule denoted in Table 1.
# CYP2C9, sequence (P11712 whole entry): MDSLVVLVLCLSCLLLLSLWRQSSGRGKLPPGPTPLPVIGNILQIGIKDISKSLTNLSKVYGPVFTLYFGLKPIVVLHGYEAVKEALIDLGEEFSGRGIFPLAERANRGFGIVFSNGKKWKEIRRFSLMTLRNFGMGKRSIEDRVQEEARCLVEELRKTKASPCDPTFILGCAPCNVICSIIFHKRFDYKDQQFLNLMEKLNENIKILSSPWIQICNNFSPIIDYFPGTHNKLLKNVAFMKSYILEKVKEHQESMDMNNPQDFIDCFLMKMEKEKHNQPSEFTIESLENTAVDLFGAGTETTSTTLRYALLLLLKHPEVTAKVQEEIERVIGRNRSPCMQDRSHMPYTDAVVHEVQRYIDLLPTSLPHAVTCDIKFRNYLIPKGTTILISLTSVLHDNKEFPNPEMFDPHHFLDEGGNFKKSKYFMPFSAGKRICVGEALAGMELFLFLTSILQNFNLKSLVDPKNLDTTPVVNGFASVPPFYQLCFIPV
# CYP1A2 (Homo sapiens, UniProt P05177), sequence (P05177 whole entry): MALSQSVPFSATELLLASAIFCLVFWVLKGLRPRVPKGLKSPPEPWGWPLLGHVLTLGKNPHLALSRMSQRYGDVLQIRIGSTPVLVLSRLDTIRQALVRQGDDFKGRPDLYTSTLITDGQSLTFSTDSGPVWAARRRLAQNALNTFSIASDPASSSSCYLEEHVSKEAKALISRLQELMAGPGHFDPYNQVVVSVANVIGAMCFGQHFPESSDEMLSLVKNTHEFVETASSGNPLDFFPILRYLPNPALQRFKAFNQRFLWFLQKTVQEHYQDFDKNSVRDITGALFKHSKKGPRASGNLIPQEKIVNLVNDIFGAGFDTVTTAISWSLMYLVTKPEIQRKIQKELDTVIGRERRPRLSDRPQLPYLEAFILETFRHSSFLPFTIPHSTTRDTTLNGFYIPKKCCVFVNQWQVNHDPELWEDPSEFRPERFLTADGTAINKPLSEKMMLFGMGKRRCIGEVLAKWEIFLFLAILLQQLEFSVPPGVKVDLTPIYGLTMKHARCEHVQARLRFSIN
# CYP2C8, sequence (P10632 whole entry): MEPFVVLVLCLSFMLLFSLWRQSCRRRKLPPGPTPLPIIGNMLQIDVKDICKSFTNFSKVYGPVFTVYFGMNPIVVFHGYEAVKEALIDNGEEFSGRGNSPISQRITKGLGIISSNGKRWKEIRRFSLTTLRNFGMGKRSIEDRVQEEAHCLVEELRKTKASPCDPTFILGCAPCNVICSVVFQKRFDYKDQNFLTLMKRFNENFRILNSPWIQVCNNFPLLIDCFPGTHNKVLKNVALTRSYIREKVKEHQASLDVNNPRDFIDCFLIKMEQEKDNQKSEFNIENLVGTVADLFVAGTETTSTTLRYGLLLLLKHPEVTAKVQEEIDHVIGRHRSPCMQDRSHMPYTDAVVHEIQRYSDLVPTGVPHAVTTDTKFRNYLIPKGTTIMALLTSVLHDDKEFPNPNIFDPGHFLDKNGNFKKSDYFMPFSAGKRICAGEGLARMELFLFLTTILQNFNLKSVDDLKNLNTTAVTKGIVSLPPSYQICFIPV
compound,measurement,setting,value
"Nc1nc(Nc2ccnc(C(F)(F)F)c2)nc(-c2cccc(C(F)(F)F)n2)n1 [compound 2, 6-(6-(trifluoromethyl)pyridin-2-yl)-N2-(2-(trifluoromethyl)pyridin-4-yl)-1,3,5-triazine-2,4-diamine]",induction of human CYP3A4,human CYP3A4,weak inducers
same,victim of strong CYP3A4 inducers such as rifampicin,human CYP3A4; used as a marker substrate,neither compound appears to be a victim
same,induction of CYP1A2,CYP1A2 [1],not observed
same,induction of CYP2B6,CYP2B6,not observed
same,IC50,CYP2C8,5300 nM
same,IC50,CYP2C9,30000 nM
same,IC50,CYP1A2 [2],430 nM
same,time-dependent or metabolism-dependent inhibition of CYP enzymes,CYP enzymes,Neither compound shows time-dependent or metabolism-dependent inhibition
"CC(C)(O)CNc1nc(Nc2ccnc(C(F)(F)F)c2)nc(-c2cccc(C(F)(F)F)n2)n1 [compound 3, 2-Methyl-1-[(4-[6-(trifluoromethyl)pyridin-2-yl]-6-{[2-(trifluoromethyl)pyridin-4-yl]amino}-1,3,5-triazin-2-yl)amino]propan-2-ol]",intracellular levels of 2-HG,"[3]; 5 μM, 7 days, 15.5 mM with DMSO",0.08 mM
same,inhibition at 1 µM,"[3]; 168 h, read-out: 2-HG production inhibited",> 99%
same,IC90,"[3]; 168 h, read-out: inhibitory concentration, 90% (IC90) for 2-HG inhibition",160 nM
same,IC50,"[3]; 168 h, read-out: intracellular IC50 for 2-HG inhibition",16 nM
same,GM-CSF independent growth,TF-1 IDH2 (R140Q) cells,reversed
same,histone hypermethylation induced by IDH2 (R140Q),"[4]; Western blot, H3K4me3, H3K9me3, H3K27me3, H3K36me3",reversed
same,dose needed to induce changes in histone methylation,[4]; within the first 7 days,200 nM
same,EPO-induced expression of hemoglobin gamma ½ and Kruppel-like factor 1 (KLF-1),[5],restores
same,population of more differentiated cells (metamyelocytes),[6]; 9 days ex vivo,clear increase
same,percentage of blast cells,[6]; by Day 6,55%
same,percentage of blast cells,[6]; by Day 9,40%
same,"EAUC90[0-12 hr], AUC0-12 hr for sustained 90% tumor 2-HG inhibition",U87MG IDH2 (R140Q) tumor; estimated,approximately 5000 hr·ng/mL
same,"EAUC97[0-12 h], AUC0-12 hr for sustained 97% tumor 2-HG inhibition",U87MG IDH2 (R140Q) tumor; estimated,~15200 ng·h/mL
same,tumor 2-HG concentration,U87MG IDH2 (R140Q) tumor; following a single oral dose,decreases rapidly
same,Survival at study termination,"[7]; 5 mg/kg PO/BID, Day 48-84",4/9
same,Survival at study termination,"[7]; 15 mg/kg PO/BID, Day 48-84",6/9
same,Survival at study termination,"[7]; 45 mg/kg PO/BID, Day 48-84",9 and 9/9
same,leukemia and differentiation in treated animals,"[7]; 5, 15, 45 mg/kg",dose dependent decrease in leukemia and evidence of normal differentiation
same,survival in comparison to cytarabine,"[7]; 5, 15, 45 mg/kg",dose dependent survival advantage
"Nc1ccn([C@@H]2O[C@H](CO)[C@@H](O)[C@@H]2O)c(=O)n1 [cytarabine, reference compound]",Survival at study termination,"[7]; 2 mg/kg, 5 Days, Day 48-52",0/4
